Values of other authors as cited in PMC10686834, “Targeting myeloid chemotaxis to reverse prostate cancer therapy resistance” (Nature, 2023).
Like-named read-outs stand apart in the source and are kept apart here.

Legend:
mCRPC patients = test system: mCRPC patients; design: method as in ref (10) (a number printed in a supplementary file, which may have a reference list of its own: not looked up in the article's list); settings: ref (10), cited from earlier work
[1] = test system: chemotherapy naïve patients with progressive metastatic prostate cancer; design: method as in ref (17) (a number printed in a supplementary file, which may have a reference list of its own: not looked up in the article's list); settings: PREVAIL, ref (17), cited from earlier work
CYP2C19 = test system: CYP2C19; design: method as in U.S enzalutamide Full Prescribing Information; settings: steady state; ref U.S enzalutamide Full Prescribing Information; cited from earlier work
CYP3A4 [2] = test system: CYP3A4; design: method as in U.S enzalutamide Full Prescribing Information; settings: single 160mg oral dose after multiple oral doses of itraconazole; ref U.S enzalutamide Full Prescribing Information; cited from earlier work
CYP3A4 [3] = test system: CYP3A4; design: method as in U.S enzalutamide Full Prescribing Information; settings: steady state; ref U.S enzalutamide Full Prescribing Information; cited from earlier work
[4] = design: method as in U.S enzalutamide Full Prescribing Information; settings: ref U.S enzalutamide Full Prescribing Information, cited from earlier work
CYP2C9 = test system: CYP2C9; design: method as in U.S enzalutamide Full Prescribing Information; settings: steady state; ref U.S enzalutamide Full Prescribing Information; cited from earlier work
[5] = test system: patients with progressive castration resistant prostate cancer previously treated with docetaxel; design: method as in ref (8) (a number printed in a supplementary file, which may have a reference list of its own: not looked up in the article's list); settings: AFFIRM, ref (8), cited from earlier work

Compound: C[C@]12CC[C@H](O)CC1=CC[C@@H]1[C@@H]2CC[C@]2(C)C(c3cccnc3)=CC[C@@H]12 [abiraterone]
- patients responding to abiraterone (PSA decline ≥50% below baseline maintained for ≥3 weeks) (mCRPC patients; patients with an NLR > 5): 16%
- patients responding to abiraterone (PSA decline ≥50% below baseline maintained for ≥3 weeks) (mCRPC patients; patients with an NLR ≤ 5): 49%

Compound: CNC(=O)c1ccc(N2C(=S)N(c3ccc(C#N)c(C(F)(F)F)c3)C(=O)C2(C)C)cc1F [enzalutamide]
- grade 3 or higher adverse events ([1]; enzalutamide group): 43%
- hypertension, grade 3 or higher ([1]; enzalutamide group): 7%
- patients alive at time of analysis ([1]; enzalutamide group): 72%
- rate of radiographic progression-free survival at 12 months ([1]; enzalutamide group): 65%
- HR, radiographic progression-free survival ([1]; enzalutamide vs placebo): 0.19
- HR, survival ([1]; enzalutamide vs placebo): 0.71
- HR, time to PSA progression ([1]; enzalutamide vs placebo): 0.17
- HR, time to initiation of cytotoxic therapy ([1]; enzalutamide vs placebo): 0.35
- HR, time until the first skeletal-related event ([1]; enzalutamide vs placebo): 0.72
- complete/partial soft tissue response ([1]; enzalutamide): 59%
- reduction in PSA level by 50% or more ([1]; enzalutamide): 78%
- CYP2C19 induction in humans (CYP2C19): moderate
- increase of AUC0-inf of enzalutamide plus N-desmethyl-enzalutamide (CYP3A4 [2]): 1.3 fold
- CYP3A4 induction in humans (CYP3A4 [3]): strong
- time to maximum plasma concentration (tmax) ([4]; after a single oral dose): 1 h
- time to reach steady state concentrations ([4]; daily oral administration): approximately 1 month
- average difference between peak (Cmax) and trough (Cmin) concentrations ([4]; steady state): 25%
- CYP2C9 induction in humans (CYP2C9): moderate
- median overall survival ([5]; enzalutamide group (800 patients)): 18.4 months
- incidence of grade 3 adverse events ([5]; enzalutamide group): 45.3%
- HR, radiographic progression-free survival ([5]; enzalutamide vs placebo): 0.40
- HR, time to PSA progression ([5]; enzalutamide vs placebo): 0.25
- HR, time to first skeletal-related event ([5]; enzalutamide vs placebo): 0.69
- quality of life response rate ([5]; enzalutamide): 43%
- radiographic progression-free survival ([5]; enzalutamide): 8.3 months
- reduction in PSA level by 50% or more ([5]; enzalutamide): 54%
- soft tissue response rate ([5]; enzalutamide): 29%
- time to PSA progression ([5]; enzalutamide): 8.3 months
- time to first skeletal-related event ([5]; enzalutamide): 16.7 months
- liver-function abnormalities reported as adverse events ([5]; patients receiving enzalutamide): 1%
